Results reported in patent US20140221301A1, “COMBINATION TREATMENT FOR CANCER” (priority 2011, published 2014).

Legend:
[1] = PK study in mice, single dose i.p.; conditions: mouse, in vivo, ip, single dose 50 mg/kg i.p.
[2] = tested on: primary normal hematopoietic cells (PBSC); assay: Cell viability by Annexin V staining, primary normal hematopoietic cells; format: cell-based, human; conditions: n=5, 48 hours
Method: FIG. 2. Tigecycline induces cell death and inhibits clonogenic growth in primary AML cells preferential over normal hematopoietic cells. Mononuclear cells from peripheral blood of leukemia patients (blast count>80%) and normal G-CSF expanded donors was treated with increasing concentrations of tigecycline for 48 hours. Cell viability was measured by Annexin-PI flow cytometry staining. Cell viability is expressed as a mean percentage plus or minus SD (n=3) relative to DMSO-treated cells. Mononuclear cells from primary AML patient samples (A, B) and normal peripheral blood cells (C) were plated in methylcelluose with 5 μM of Tigecycline. (D) Colony forming units were counted at 7 days (AML) and 14 days (Normal) post plating. […]
Cell growth and viability was assessed by the MTS assay (Promega, Madison, Wis.) according to the manufacturer's instructions. Apoptosis and cell death was measured by Annexin V-fluroscein isothiocyanate (FITC; Biovision Research Products, Mountain View, Calif.), propidium iodide staining and flow cytometry according to the manufacturer's instructions and as previously described^30.
Given the cytotoxicity of tigecycline towards leukemia cell lines, the ability of tigecycline to induce cell death in primary acute myeloid leukemia (AML) patient samples and normal hematopoietic cells was compared and evaluated. […]

[3] = tested on: Cox-1, Cox-2, Cox-4 mRNA; assay: Quantitative RT-PCR of Cox mRNA; format: cell-based, human; conditions: TEX and primary AML cells, 2.5 μM and 5 μM
Method: FIG. 4. […] (A) Cells from TEX, OCI-AML2 and two primary AML patients were treated with increasing concentrations (2.5 μM and 5 μM) of tigecycline for 36 and 48 hours of tigecycline. Total proteins were extracted and analyzed by western blotting for Cox-1, Cox-2, Cox-4, grp78, XIAP, actin and tubulin. (B) TEX and AML patient cells were treated with increasing concentrations (2.5 μM and 5 μM) of tigecycline. Cox-1, Cox-2, and Cox-4 mRNA expression relative 18S was determined by quantitative RT-PCR. Data is shown as mean±SD. (C) TEX cells were treated with increasing concentrations of tigecycline and chloramphenicol (CAP) for 72 hours. Complex I, II and IV enzyme activity relative to citrate synthase activity was determined as described in materials and methods. (D) Cells from TEX, primary AML patients, and normal donors were treated with increasing concentrations of tigecycline. Mitochondrial membrane potential (ΔΨ) was determined by staining cells with JC-1 dye, and flow cytometry analysis (Red/Green ratio). Reactive oxygen species generation (ROS) was determined by staining with h2-DCFDA and Dihydroethidium (DHE).

[4] = tested on: Complexes I and IV; assay: Respiratory chain enzyme activity relative to citrate synthase, Complexes I and IV; format: cell-based, human; conditions: TEX cells, 2.5 μM and 5 μM, 72 hours
Method: FIG. 4. Tigecycline decreases mitochondrial Cox-1 protein levels in TEX cells. (A) Cells from TEX, OCI-AML2 and two primary AML patients were treated with increasing concentrations (2.5 μM and 5 μM) of tigecycline for 36 and 48 hours of tigecycline. Total proteins were extracted and analyzed by western blotting for Cox-1, Cox-2, Cox-4, grp78, XIAP, actin and tubulin. (B) TEX and AML patient cells were treated with increasing concentrations (2.5 μM and 5 μM) of tigecycline. Cox-1, Cox-2, and Cox-4 mRNA expression relative 18S was determined by quantitative RT-PCR. Data is shown as mean±SD. (C) TEX cells were treated with increasing concentrations of tigecycline and chloramphenicol (CAP) for 72 hours. Complex I, II and IV enzyme activity relative to citrate synthase activity was determined as described in materials and methods. […] Mitochondrial membrane potential (ΔΨ) was determined by staining cells with JC-1 dye, and flow cytometry analysis (Red/Green ratio). Reactive oxygen species generation (ROS) was determined by staining with h2-DCFDA and Dihydroethidium (DHE).
The effect of tigecycline treatment on enzyme activity of the respiratory chain complexes relative to the mitochondrial non-respiratory chain enzyme citrate synthase was examined. TEX leukemia cells were treated with tigecycline for […] and then respiratory chain enzyme relative to citrate synthase activity was analyzed. […]

[5] = rat, in vivo, 30 mg/kg/day; cited from earlier work

Compound: CN(C)c1cc(NC(=O)CNC(C)(C)C)c(O)c2c1C[C@H]1C[C@H]3[C@H](N(C)C)C(O)=C(C(N)=O)C(=O)[C@@]3(O)C(O)=C1C2=O [tigecycline]
- Tmax [1]: ~0.5 h
- half-life [1]: ~4.5 h
- LD50 [2]: > 10 µM
- mRNA expression of Cox-1, Cox-2 over Cox-4 [3]: preferential increased mRNA expression
- enzyme activities of Complexes I and IV relative to citrate synthase [4]: decreased
- toxicology findings [5]: reversible anemia, thrombocytopenia, and leucopenia with a hypocellular bone marrow
